Residue numbers refer to the chain shown, from its start.
How the values were obtained:
Assay in all cases: E. coli hemG growth inhibition by herbicide, AtPPO1 variant
Format in all cases: cell-based
Details in all cases: read-out: percentage growth inhibition
AtPPO1 K281N = target: T1, AtPPO1 K281N (Arabidopsis thaliana, UniProt P55826, K281N)
T1 construct: expressed in transfected cells; host or cells: E. coli BL21(DE3) hemG (hemG replaced by CmR), pET24a plasmid
T1 sequence (P55826 35-537 K281N): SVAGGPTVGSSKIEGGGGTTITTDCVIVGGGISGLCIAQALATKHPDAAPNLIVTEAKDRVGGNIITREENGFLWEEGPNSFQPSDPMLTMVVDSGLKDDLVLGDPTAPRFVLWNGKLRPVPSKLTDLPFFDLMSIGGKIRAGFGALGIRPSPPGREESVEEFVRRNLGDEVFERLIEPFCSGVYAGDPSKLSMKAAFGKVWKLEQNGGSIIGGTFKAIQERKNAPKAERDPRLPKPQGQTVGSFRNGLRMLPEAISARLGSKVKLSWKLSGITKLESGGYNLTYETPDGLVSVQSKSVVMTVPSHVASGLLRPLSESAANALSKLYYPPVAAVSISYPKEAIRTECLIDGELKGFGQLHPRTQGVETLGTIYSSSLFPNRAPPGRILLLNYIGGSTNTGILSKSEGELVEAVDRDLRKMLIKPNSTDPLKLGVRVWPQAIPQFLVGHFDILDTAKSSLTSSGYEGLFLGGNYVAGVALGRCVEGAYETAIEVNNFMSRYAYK
Summary of the method: (§1)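 E. coli BL21(DE3) ΔhemG::CmR complemented by AtPPO1 variants (pET24a, T7, E. coli codon-optimised); TB + 0.1 mM IPTG, 1:100 inoculum; 6.25 ppm herbicide 0/E or 0.78 ppm herbicide B vs DMSO; 24 h, 37° C, 250 rpm; OD600 at 24 h → % growth inhibition.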

AtPPO1 A176L = target: T2, AtPPO1 A176L (Arabidopsis thaliana, UniProt P55826, A176L)
T2 construct: expressed in transfected cells; host or cells: E. coli BL21(DE3) hemG (hemG replaced by CmR), pET24a plasmid
T2 sequence (P55826 35-537 A176L): T1 sequence (P55826 35-537 K281N) with A142L, N247K
Summary of the method: as §1

AtPPO1 Y361F = target: T3, AtPPO1 Y361F (Arabidopsis thaliana, UniProt P55826, Y361F)
T3 construct: expressed in transfected cells; host or cells: E. coli BL21(DE3) hemG (pET24a, T7 promoter)
T3 sequence (P55826 35-537 Y361F): T1 sequence (P55826 35-537 K281N) with N247K, Y327F
Summary of the method: as §1

AtPPO1 V198W = target: T4, AtPPO1 V198W (Arabidopsis thaliana, UniProt P55826, V198W)
T4 construct: expressed in transfected cells; host or cells: E. coli BL21(DE3) hemG (hemG replaced by CmR), pET24a plasmid
T4 sequence (P55826 35-537 V198W): T1 sequence (P55826 35-537 K281N) with V164W, N247K
Summary of the method: as §1

CCOC(=O)[C@]1(C)CC(c2cc(-n3c(=O)n(C)c(=S)n(C)c3=O)c(F)cc2Cl)=NO1 [Herbicide D, ethyl (5S)-3-[2-chloro-5-(3,5-dimethyl-2,6-dioxo-4-thioxo-1,3,5-triazinan-1-yl)-4-fluoro-phenyl]-5-methyl-4H-isoxazole-5-carboxylate]
inhibition at 6.25 ppm (AtPPO1 K281N): 37%
inhibition at 6.25 ppm (AtPPO1 A176L): 42%
inhibition at 6.25 ppm (AtPPO1 Y361F): 37%
inhibition at 6.25 ppm (AtPPO1 V198W): 47%

C#CCN1C(=O)C(F)(F)Oc2cc(F)c(-n3c(=O)n(C)c(=S)n(C)c3=O)cc21 [Herbicide B, trifludimoxazin]
inhibition at 0.78 ppm (AtPPO1 K281N): 39%
inhibition at 0.78 ppm (AtPPO1 A176L): 35%
inhibition at 0.78 ppm (AtPPO1 Y361F): 31%
inhibition at 0.78 ppm (AtPPO1 V198W): 30%

CC(C)N(C)S(=O)(=O)NC(=O)c1cc(-n2c(=O)cc(C(F)(F)F)n(C)c2=O)c(F)cc1Cl [Herbicide E, saflufenacil]
inhibition at 6.25 ppm (AtPPO1 K281N): 56%
inhibition at 6.25 ppm (AtPPO1 A176L): 61%
inhibition at 6.25 ppm (AtPPO1 Y361F): 50%
inhibition at 6.25 ppm (AtPPO1 V198W): 51%

Reference: patent publication US20260297542A1, “HERBICIDE RESISTANT PLANTS” (SYNGENTA CROP PROTECTION AG, priority 2023, published 2026)
